For four molecules, remaining activity results are on record in patent US4764460A, “Recombinant sigma NS protein” (priority 1985, dated 1988).

For this assay, the target named is T1, rσNS (Reovirus type 3, UniProt P03526).
T1 construct: made in house; host or cells: E. coli RR1 (pRK248cIts) carrying pRC23-S3
Put plainly: Inhibition of binding of reovirus ssRNA to rσNS by ribonucleotides. The following applies: for remaining activity at 10000 µM: ribonucleotide 10 mM. The protocol:
In a preliminary experiment it was noticed that the capacity of rσNS to bind (ss) RNAs was abolished if all four ribonucleotides were included in the reaction mixture. The ability of each of the four ribonucleotides (ATP, CTP, GTP, and UTP) to inhibit binding was then examined. […] With the amount of rσNS used in these experiments (130 ng per reaction) GTP inhibition was evident between 0.5 mM and 1 mM (Table 3). The other three ribonucleotides caused little interference with binding even at concentrations of 10 mM (Table 3). This was an important observation for developing σNS as a concentrator of (ss) RNA in test samples to be used in hybridization probe assays. […] The isolated (ss) RNA can then be treated with the hybridization probe in a conventional manner. Obviously since the binding of the σNS protein with the (ss) RNA is non-specific, the specificity of the assay is fully determined by the specificity of the hybridization probe for the desired RNA being assayed.

The mark [1] stands for this setting: read-out: % of [32P]-labeled reovirus ssRNA retained on nitrocellulose membrane, expressed as percentage of control, EXP. 1, ribonucleotide 2 mM (mixture 2 mM each), 130 ng rσNS per reaction.
Setting [2] is: read-out: % of [32P]-labeled reovirus ssRNA retained on nitrocellulose membrane, expressed as percentage of control, EXP. 2.

SMILES strings stand for the structures. Where two headings read alike, the source gives them in different places.

T1 sequence (P03526 whole entry): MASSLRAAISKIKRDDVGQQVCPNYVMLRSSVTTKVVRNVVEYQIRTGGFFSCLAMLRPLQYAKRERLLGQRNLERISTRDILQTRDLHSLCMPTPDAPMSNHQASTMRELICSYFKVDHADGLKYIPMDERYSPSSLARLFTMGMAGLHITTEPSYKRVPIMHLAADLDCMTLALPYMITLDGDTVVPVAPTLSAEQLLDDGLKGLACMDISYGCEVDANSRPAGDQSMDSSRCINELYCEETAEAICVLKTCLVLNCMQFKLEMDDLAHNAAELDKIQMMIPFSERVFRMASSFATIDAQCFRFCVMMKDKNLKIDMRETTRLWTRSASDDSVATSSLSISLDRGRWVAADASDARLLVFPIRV

With `Nc1ncnc2c1ncn2[C@@H]1O[C@H](COP(=O)(O)OP(=O)(O)OP(=O)(O)O)[C@@H](O)[C@H]1O` [ATP], under setting [1], the remaining activity at 2000 µM was 61%. The remaining activity at 10000 µM under setting [2] was determined as 95%.
The corresponding values for `Nc1ccn([C@@H]2O[C@H](COP(=O)(O)OP(=O)(O)OP(=O)(O)O)[C@@H](O)[C@H]2O)c(=O)n1` [CTP] are 58% and 81%.
Regarding `Nc1nc2c(ncn2[C@@H]2O[C@H](COP(=O)(O)OP(=O)(O)OP(=O)(O)O)[C@@H](O)[C@H]2O)c(=O)[nH]1` [GTP], the remaining activity at 2000 µM runs as follows: under setting [1], 5%; (read-out: % of [32P]-labeled reovirus ssRNA retained on nitrocellulose membrane, expressed as percentage of control, EXP. 2, ribonucleotide 2 mM) 15%. The remaining activity at 100 µM (read-out: % of [32P]-labeled reovirus ssRNA retained on nitrocellulose membrane, expressed as percentage of control, EXP. 2, ribonucleotide 0.1 mM) came out at 93%. For the same molecule, the remaining activity at 500 µM (read-out: % of [32P]-labeled reovirus ssRNA retained on nitrocellulose membrane, expressed as percentage of control, EXP. 2, ribonucleotide 0.5 mM) worked out at 95%. For the same molecule, for the setting “read-out: % of [32P]-labeled reovirus ssRNA retained on nitrocellulose membrane, expressed as percentage of control, EXP. 2, ribonucleotide 1 mM”, the remaining activity at 1000 µM stood at 29%. In addition, the remaining activity at 10000 µM under setting [2] came out at 0%.
As for `O=c1ccn([C@@H]2O[C@H](COP(=O)(O)OP(=O)(O)OP(=O)(O)O)[C@@H](O)[C@H]2O)c(=O)[nH]1` [UTP], the remaining activity at 2000 µM under setting [1] worked out at 59%. Further, under setting [2], the remaining activity at 10000 µM was 68%.
